The values below come from paper PMC11395612, “DPP-IV Inhibitory Peptide against In Vitro Gastrointestinal Digestion Derived from Goat’s Milk Protein and Its Activity Enhancement via Amino Acid Substitution” (Foods, 2024).

Series [1] concerns the target T1, DPP-IV (Homo sapiens, UniProt P27487).
T1 construct: host or cells: Caco-2 cells
The series is classed as cell-based.

Series [2] relates to DPP-IV. The settings on record: MBPDB database assignment, cited from earlier work. The text has this:
Among them, the DPP-IV inhibitory peptide fragment derived from milk serum albumin may be rapidly degraded in vivo due to low structural stability, leading to loss of activity.

The subject of another series is Caco-2 cells. The settings on record: 4 h.
Series [3] is described as follows: In vitro simulated gastrointestinal digestion of goat milk. It is filed as in vitro ADME. The following applies: in vitro gastric (pepsin, pH 2.0, 60 min) then intestinal digestion (pH 7.0), 30 min, LC-MS/MS. As to the method: Goat milk was subjected to simulated gastrointestinal digestion according to the in vitro digestion protocol described by Xue et al.. Artificial gastric fluid from goat milk was mixed in a 1:1 ratio, followed by the addition of 120 μL CaCl2(H2O)2. The pH of the resulting solution was adjusted to 2.0 using HCl. The solution was then divided into centrifuge tubes, with each tube containing 20 mL of the solution. The tubes were placed in a water bath (FYDKH3, Shanghai Hengyi Scientific Instrument Co., Shanghai, China) and subjected to shock for five min for pre-heating. Subsequently, pepsin was added and dissolved in simulated gastric fluid (SGF). After preheating, 1 mL enzyme solution was added to each tube to initiate the in vitro digestion process. Digestion time intervals were established at 0, 10, 30, 60, 90, and 120 min. Additionally, the pH of the digestion solution was adjusted to 8.0, using NaOH solution to deactivate the enzyme following digestion. After gastric digestion for 60 min followed by enzyme inactivation, an artificial intestinal solution was added at a ratio of 1:1. The subsequent experimental procedures were identical to those previously described. The pH of the solution was adjusted to 7.0. Digestion time intervals were set at 0, 0.5, 5, 10, 30, and 60 min. […]
LC-MS/MS was determined as described by Sun et al.. […]

Series [4] concerns DPP-IV. The following applies: ref [32], cited from earlier work. The source says: In the process of in vitro digestion, potential active peptide fragments harboring in food proteins may be degraded by digestive enzymes, but the peptide fragment selected in this study still has DPP-IV inhibitory activity after digestion, which is a digestion-resistant peptide fragment with a molecular weight of about 1kDa. Some reported that DPP-IV inhibitory peptides tend to be active peptides with 2–8 amino acid residues and a molecular weight of less than 1 kDa. The DPP-IV inhibition and metabolic stability of casein-derived peptide Val-Pro-Tyr-Pro-Gln (VPYPQ) and its fragments, an ...

Setting [5] is: ref [23] in Table 1 for VGINYWLAHK and ILDKVGINYWLAHK

pIC50: −log10 of the molar value. “Also recorded” adds a separate entry of the source. Like-named read-outs stand apart in the source and are kept apart here.

T1 sequence (P27487 whole entry): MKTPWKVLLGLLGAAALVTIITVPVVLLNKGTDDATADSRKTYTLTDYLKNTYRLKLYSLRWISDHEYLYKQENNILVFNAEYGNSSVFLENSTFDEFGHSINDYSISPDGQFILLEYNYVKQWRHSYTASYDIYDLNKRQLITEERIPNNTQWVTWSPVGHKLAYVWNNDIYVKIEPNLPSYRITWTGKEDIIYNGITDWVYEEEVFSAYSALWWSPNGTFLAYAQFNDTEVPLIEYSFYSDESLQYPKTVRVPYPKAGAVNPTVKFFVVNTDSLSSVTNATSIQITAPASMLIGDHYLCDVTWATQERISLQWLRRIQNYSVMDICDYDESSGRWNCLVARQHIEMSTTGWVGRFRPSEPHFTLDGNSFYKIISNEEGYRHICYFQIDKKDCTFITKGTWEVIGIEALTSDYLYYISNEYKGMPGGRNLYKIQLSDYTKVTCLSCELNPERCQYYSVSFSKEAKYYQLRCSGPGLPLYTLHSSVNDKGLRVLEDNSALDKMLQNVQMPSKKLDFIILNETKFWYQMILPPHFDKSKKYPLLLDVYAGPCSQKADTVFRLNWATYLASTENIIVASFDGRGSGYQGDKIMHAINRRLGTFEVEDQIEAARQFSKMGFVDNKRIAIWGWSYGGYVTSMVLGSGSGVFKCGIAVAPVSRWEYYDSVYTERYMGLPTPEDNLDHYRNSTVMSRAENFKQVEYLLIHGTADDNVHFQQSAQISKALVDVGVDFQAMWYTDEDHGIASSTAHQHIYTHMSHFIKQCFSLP

With H-ILDKVGINY-OH [IL], the DPP-IV inhibition rate on DPP-IV [1] was determined as 73.44 ± 2.23%. The “DPP-IV inhibitory activity, in words” value in the series with DPP-IV [2] (ref [23] in Table 1 for […] and […]) is “displayed DPP-IV inhibitory activity”. For the same substance, the results for the “cellular activity (cell viability)” value with Caco-2 cells (0.5 mg/mL) and with Caco-2 cells (1 mg/mL) were 91.91 ± 5.763% and 86 ± 3.911%, respectively. Further, the “resistance to digestion / activity after digestion, in words” value was “high in content and resistance to digestion” in series [3]; “retaining its activity following digestion” in series [3] (listed as ILDKVGINY).
For the substance H-IPDKVGINY-OH [IP], on DPP-IV [1], the DPP-IV inhibition rate was 60.37 ± 3.04% and the “DPP-IV inhibitory effect, in words” value is listed as “weakest; also recorded: lower inhibition rate”. Also, in the series with Caco-2 cells (0.5 mg/mL), the “cellular activity (cell viability)” value stood at 91.88 ± 5.385%. The “cellular activity (cell viability)” value with Caco-2 cells (1 mg/mL) is 84.46 ± 2.928%.
Turning to H-IIDKVGINY-OH [II], on DPP-IV [1], the DPP-IV inhibition rate came out at 79.20 ± 2.20%; the “DPP-IV inhibitory effect, in words” value was “significant enhancement of DPP-IV inhibitory activity; also recorded: strongest; also recorded: increased the hydrophobic force and inhibitory activity”. Besides, the “cellular activity (cell viability)” value in the series with Caco-2 cells (0.5 mg/mL) was 90.34 ± 2.08%. Moreover, the “cellular activity (cell viability)” value in the series on Caco-2 cells (1 mg/mL) was 85.51 ± 3.52%.
On to ILDKVGINYWLAHK, for which the “DPP-IV inhibitory activity, in words” value in the series on DPP-IV [2] (setting [5]) was “displayed DPP-IV inhibitory activity”.
VGINYWLAHK: in the series on DPP-IV [2] (setting [5]), the “DPP-IV inhibitory activity, in words” value is on record as “displayed DPP-IV inhibitory activity”.
Usually pIC50 stands for the IC50 on a negative log10 scale, so that one unit is a factor of ten. Consider “Val-Pro-Tyr-Pro-Gln [VPYPQ, casein-derived peptide]”, for which the “DPP-IV inhibitory activity, in words” value with DPP-IV [4] (among VPYPQ and its fragments) is given as “strongest DPP-IV inhibitory peptide”. In addition, the pIC50 in the series with DPP-IV [4] (casein-derived peptide, read-out: IC50 of DPP-IV inhibition) is 4.38.
